Bounds are passed on as bounds.

The first test has as its system rats and mice.
Test: not given
The settings on record: cited from earlier work.
As for `COc1ccc2[nH]cc(CCNC(C)=O)c2c1` [Melatonin, N-[2-(5-methoxy-3-indolyl)ethyl]acetamide], the “inhibition of the estrous phase of the estrous cycle and of ovulation” value was “inhibited both the estrous phase of the estrous cycle and ovulation”.

The subject of a further test is Adult female rats. Briefly: Ovulation inhibition in adult female rats (ova in the oviduct on the day of estrus). The class given is in vivo. The settings on record: Rattus norvegicus, po; administered orally at noon on the day of proestrus; dose giving a 50% decrease in the number of ovulating non-control rats relative to control rats; read-out: Minimum effective inhibitory dose in mg per kilogram of rat weight. As for the experimental part: The degree of ovulation inhibitory activity was determined according to the following protocol.
Adult female rats with regular estrus cycles of four days each are employed. The estrus cycle consists of 2 days of diestrus followed by a day of proestrus and then a day of estrus. […] On the afternoon of proestrus, luteinizing hormone (LH) is released into the blood by the pituitary gland. The LH travels to the ovary where it induces ovulation, resulting in the presence of eggs in the oviduct on the day of estrus.
The test compound is administered orally to the non-control rats at noon on the day of proestrus. Both control and non-control rats are sacrificed on the following day (estrus). The oviduct is removed from each rat and examined microscopically for the presence of ova.
Melatonin is included in Table I for comparative purposes.
With `COc1cc2c(C(C)CNC(C)=O)c[nH]c2c(Cl)c1Cl` (racemic) [β-Methyl-6,7-dichloro-melatonin, β-methyl-6,7-dichloromelatonin], the minimal effective dose was 15 mg/kg.
Consider `CCC(CNC(C)=O)c1c[nH]c2ccc(OC)cc12` (racemic) [β-ethyl melatonin, β-Ethylmelatonin], for which the minimal effective dose came to 1 mg/kg.
The same measure, in the same setting: the figure for `COc1ccc2[nH]cc(C(C)CNC(C)=O)c2c1` (racemic) [β-methyl melatonin, β-Methylmelatonin] is 1 mg/kg.
In the case of `COc1cc2c(C(C)CNC(C)=O)c[nH]c2cc1Cl` (racemic) [β-methyl-6-chloro-melatonin, β-Methyl-6-chloromelatonin], the minimal effective dose amounted to 2 mg/kg.
For the compound `COc1ccc2[nH]cc(CCNC(C)=O)c2c1` [Melatonin, N-[2-(5-methoxy-3-indolyl)ethyl]acetamide], the minimal effective dose worked out at 32 mg/kg.
Same read-out and setting: as for `COc1ccc2[nH]cc([C@@H](C)CNC(C)=O)c2c1` [R-(+)-β-methyl melatonin, R-(+)-β-Methylmelatonin], the figure is 1 mg/kg; as for `COc1cc2c([C@@H](C)CNC(C)=O)c[nH]c2cc1Cl` [R-(+)-β-methyl-6-chloromelatonin], 1 mg/kg; as for `COc1cc2c([C@H](C)CNC(C)=O)c[nH]c2cc1Cl` [S-(-)-β-methyl-6-chloromelatonin], greater than 5 mg/kg.

A further test deals with ovulation.
Test: not given
The note with it: compared to melatonin; cited from earlier work.
For the compound `COc1cc2c(CCNC(C)=O)c[nH]c2cc1Cl` [6-chloromelatonin], the ovulation blocking activity entry is “increased ovulation blocking activity”.
For `COc1cc2c(CCNC(C)=O)c[nH]c2cc1F` [6-fluoromelatonin], the ovulation blocking activity result is given as “increased ovulation blocking activity”.
`COc1cc2c(CC(C)NC(C)=O)c[nH]c2cc1Cl` (stereo not drawn) [α-Methyl-6-chloromelatonin]: the ovulation blocking activity result is “no increased ovulation-blocking activity”.
